In patent publication US9149038B2, “4-amino-6-(heterocyclic)picolinates and 6-amino-2-(heterocyclic)pyrimidine-4-carboxylates and their use as herbicides” (Dow AgroSciences LLC, priority 2013, dated 2015):
Where two headings read alike, the source gives them in different places.

Assays:
[1] = test system: Key Grass and Sedge Weeds as well as Grass Crops; test: Post-Emergent Test II: postemergent herbicidal activity, visual rating after 14 d (Table 8); assay type: in vivo; conditions: post-emergence, 336 h; for pest or weed control at 35 g/ha: 35 g ai/ha; for pest or weed control at 70 g/ha: 70 g ai/ha; for pest or weed control at 140 g/ha: 140 g ai/ha
Summary of the method: (§1)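 Greenhouse plants at first or second true leaf stage sprayed with compound in acetone/DMSO-based spray solution with crop oil concentrate and Triton X-155 at 187 L/ha, tested at highest rate and ½× to 1/16× dilutions; solvent blank controls. Injury rated visually 0–100% versus untreated plants after 14 d.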

[2] = test system: Key Broadleaf Weed and Crop Species; test: Post-Emergent Test II: postemergent herbicidal activity, visual rating after 14 d (Table 7); assay type: in vivo; conditions: post-emergence, 336 h; for pest or weed control at 35 g/ha: 35 g ai/ha; for pest or weed control at 70 g/ha: 70 g ai/ha; for pest or weed control at 140 g/ha: 140 g ai/ha
Summary of the method: as §1

[3] = barnyardgrass (Echinochloa crus-galli), read-out: Visual Growth Reduction (%) 14 Days After Application ECHCG
[4] = giant foxtail (Setaria faberi), read-out: Visual Growth Reduction (%) 14 Days After Application SETFA
[5] = maize, corn (Zea mays), read-out: Visual Growth Reduction (%) 14 Days After Application ZEAMX
[6] = rice (Oryza sativa), read-out: Visual Growth Reduction (%) 14 Days After Application ORYSA
[7] = wheat, spring (Triticum aestivum), read-out: Visual Growth Reduction (%) 14 Days After Application TRZAS
[8] = yellow nutsedge (Cyperus esculentus), read-out: Visual Growth Reduction (%) 14 Days After Application CYPES
[9] = lambsquarters (Chenopodium album), read-out: Visual Growth Reduction (%) 14 Days After Application CHEAL
[10] = oilseed rape, canola (Brassica napus), read-out: Visual Growth Reduction (%) 14 Days After Application BRSNN
[11] = redroot pigweed (Amaranthus retroflexus), read-out: Visual Growth Reduction (%) 14 Days After Application AMARE
[12] = sunflower (Helianthus annuus), read-out: Visual Growth Reduction (%) 14 Days After Application HELAN
[13] = velvetleaf (Abutilon theophrasti), read-out: Visual Growth Reduction (%) 14 Days After Application ABUTH
[14] = wild poinsettia (Euphorbia heterophylla), read-out: Visual Growth Reduction (%) 14 Days After Application EPHHL

| Structure (SMILES) | pest or weed control at 35 g/ha [1, 3] [%] | pest or weed control at 70 g/ha [1, 3] [%] | pest or weed control at 140 g/ha [1, 3] [%] | pest or weed control at 35 g/ha [1, 4] [%] | pest or weed control at 70 g/ha [1, 4] [%] | pest or weed control at 140 g/ha [1, 4] [%] | pest or weed control at 35 g/ha [1, 5] [%] | pest or weed control at 70 g/ha [1, 5] [%] | pest or weed control at 140 g/ha [1, 5] [%] | pest or weed control at 35 g/ha [1, 6] [%] | pest or weed control at 70 g/ha [1, 6] [%] | pest or weed control at 140 g/ha [1, 6] [%] | pest or weed control at 35 g/ha [1, 7] [%] | pest or weed control at 70 g/ha [1, 7] [%] | pest or weed control at 140 g/ha [1, 7] [%] | pest or weed control at 35 g/ha [1, 8] [%] | pest or weed control at 70 g/ha [1, 8] [%] | pest or weed control at 140 g/ha [1, 8] [%] | pest or weed control at 35 g/ha [2, 9] [%] | pest or weed control at 70 g/ha [2, 9] [%] | further results |
| --- | --- | --- | --- | --- | --- | --- | --- | --- | --- | --- | --- | --- | --- | --- | --- | --- | --- | --- | --- | --- | --- |
| Nc1c(F)c(-c2ccc(I)c3c2OC(F)(F)O3)nc(C(=O)O)c1Cl [Compound 81] | 0 to 29 | 0 to 29 | 0 to 29 | 0 to 29 | 0 to 29 | 0 to 29 | 0 to 29 | 0 to 29 | 0 to 29 | 0 to 29 | 0 to 29 | 0 to 29 | 0 to 29 | 0 to 29 | 0 to 29 | 0 to 29 | 0 to 29 | 0 to 29 | 85 to 94 | 85 to 94 | pest or weed control at 140 g/ha [2, 9]: 85 to 94%; pest or weed control at 35 g/ha [2, 10]: 75 to 84%; pest or weed control at 70 g/ha [2, 10]: 85 to 94%; pest or weed control at 140 g/ha [2, 10]: 95 to 100%; pest or weed control at 35 g/ha [2, 11]: 95 to 100%; pest or weed control at 70 g/ha [2, 11]: 95 to 100%; pest or weed control at 140 g/ha [2, 11]: 95 to 100%; pest or weed control at 35 g/ha [2, 12]: 85 to 94%; pest or weed control at 70 g/ha [2, 12]: 85 to 94%; pest or weed control at 140 g/ha [2, 12]: 85 to 94%; pest or weed control at 35 g/ha [2, 13]: 0 to 29%; pest or weed control at 70 g/ha [2, 13]: 60 to 74%; pest or weed control at 140 g/ha [2, 13]: 75 to 84%; pest or weed control at 35 g/ha [2, 14]: 0 to 29%; pest or weed control at 70 g/ha [2, 14]: 0 to 29%; pest or weed control at 140 g/ha [2, 14]: 0 to 29% |
| Cc1c(-c2ccc3c(c2)OC(F)(F)O3)nc(C(=O)O)c(Cl)c1N [Compound 52] | 45 to 59 | 60 to 74 | 75 to 84 | 0 to 29 | 0 to 29 | 45 to 59 | 60 to 74 | 60 to 74 | 60 to 74 | 0 to 29 | 0 to 29 | 0 to 29 | 0 to 29 | 30 to 44 | 30 to 44 | 0 to 29 | 0 to 29 | 0 to 29 | 0 to 29 | 0 to 29 | pest or weed control at 140 g/ha [2, 9]: 0 to 29%; pest or weed control at 35 g/ha [2, 10]: 0 to 29%; pest or weed control at 70 g/ha [2, 10]: 0 to 29%; pest or weed control at 140 g/ha [2, 10]: 0 to 29%; pest or weed control at 35 g/ha [2, 11]: 0 to 29%; pest or weed control at 70 g/ha [2, 11]: 0 to 29%; pest or weed control at 140 g/ha [2, 11]: 0 to 29%; pest or weed control at 35 g/ha [2, 12]: 85 to 94%; pest or weed control at 70 g/ha [2, 12]: 95 to 100%; pest or weed control at 140 g/ha [2, 12]: 95 to 100%; pest or weed control at 35 g/ha [2, 13]: 0 to 29%; pest or weed control at 70 g/ha [2, 13]: 0 to 29%; pest or weed control at 140 g/ha [2, 13]: 0 to 29%; pest or weed control at 35 g/ha [2, 14]: 0 to 29%; pest or weed control at 70 g/ha [2, 14]: 0 to 29%; pest or weed control at 140 g/ha [2, 14]: 0 to 29% |
| COC(=O)c1nc(-c2cc3c(cc2F)OCO3)cc(N)c1Cl [Compound 45] | 75 to 84 | 75 to 84 | 85 to 94 | 60 to 74 | 60 to 74 | 85 to 94 | 45 to 59 | 60 to 74 | 75 to 84 | 45 to 59 | 60 to 74 | 60 to 74 | 30 to 44 | 45 to 59 | 60 to 74 | 30 to 44 | 30 to 44 | 60 to 74 | 85 to 94 | 95 to 100 | pest or weed control at 140 g/ha [2, 9]: 95 to 100%; pest or weed control at 35 g/ha [2, 10]: 75 to 84%; pest or weed control at 70 g/ha [2, 10]: 95 to 100%; pest or weed control at 140 g/ha [2, 10]: 95 to 100%; pest or weed control at 35 g/ha [2, 11]: 95 to 100%; pest or weed control at 70 g/ha [2, 11]: 95 to 100%; pest or weed control at 140 g/ha [2, 11]: 95 to 100%; pest or weed control at 35 g/ha [2, 12]: 60 to 74%; pest or weed control at 70 g/ha [2, 12]: 60 to 74%; pest or weed control at 140 g/ha [2, 12]: 75 to 84%; pest or weed control at 35 g/ha [2, 13]: 95 to 100%; pest or weed control at 70 g/ha [2, 13]: 95 to 100%; pest or weed control at 140 g/ha [2, 13]: 95 to 100%; pest or weed control at 35 g/ha [2, 14]: 75 to 84%; pest or weed control at 70 g/ha [2, 14]: 85 to 94%; pest or weed control at 140 g/ha [2, 14]: 95 to 100% |
